Each structure is given as a SMILES string.

60 compounds from the Kinase Knowledgebase extract (Sharma et al. 2016) can be followed below.

PIK3CG (human), sequence (P48736 whole entry, looked up): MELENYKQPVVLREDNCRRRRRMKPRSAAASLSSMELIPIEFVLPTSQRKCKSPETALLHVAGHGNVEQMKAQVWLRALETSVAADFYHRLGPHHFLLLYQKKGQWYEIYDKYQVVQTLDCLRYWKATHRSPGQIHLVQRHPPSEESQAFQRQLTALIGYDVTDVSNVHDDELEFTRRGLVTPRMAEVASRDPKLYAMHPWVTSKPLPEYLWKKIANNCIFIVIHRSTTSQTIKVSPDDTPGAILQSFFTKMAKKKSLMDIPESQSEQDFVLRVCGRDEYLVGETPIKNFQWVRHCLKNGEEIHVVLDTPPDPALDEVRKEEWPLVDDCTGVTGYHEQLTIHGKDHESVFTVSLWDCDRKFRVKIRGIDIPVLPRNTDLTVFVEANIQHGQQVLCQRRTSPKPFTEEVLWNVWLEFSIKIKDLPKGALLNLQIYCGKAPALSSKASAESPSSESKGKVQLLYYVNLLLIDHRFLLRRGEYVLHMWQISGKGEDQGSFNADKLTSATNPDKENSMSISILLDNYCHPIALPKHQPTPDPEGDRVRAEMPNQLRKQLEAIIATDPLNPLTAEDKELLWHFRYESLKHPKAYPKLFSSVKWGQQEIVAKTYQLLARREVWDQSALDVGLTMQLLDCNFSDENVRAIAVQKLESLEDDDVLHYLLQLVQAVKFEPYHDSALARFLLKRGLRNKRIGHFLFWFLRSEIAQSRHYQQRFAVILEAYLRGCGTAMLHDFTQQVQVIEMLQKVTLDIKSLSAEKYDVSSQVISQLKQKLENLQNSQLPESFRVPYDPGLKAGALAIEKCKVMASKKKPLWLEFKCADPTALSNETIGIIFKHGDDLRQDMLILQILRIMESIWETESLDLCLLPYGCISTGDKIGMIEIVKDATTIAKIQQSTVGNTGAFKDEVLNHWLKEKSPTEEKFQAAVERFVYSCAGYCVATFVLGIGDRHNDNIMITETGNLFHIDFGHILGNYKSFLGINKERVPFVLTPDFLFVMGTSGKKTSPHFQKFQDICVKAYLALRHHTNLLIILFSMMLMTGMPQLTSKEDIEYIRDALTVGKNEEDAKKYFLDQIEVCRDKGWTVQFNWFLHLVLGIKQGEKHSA

The assay concerns the target PIK3CG (human) (UniProt P48736). The assay can be described thus: Inhibition of PIK3CG Kinase Activity.
Usually Ki stands for a measure of affinity in units of concentration, obtained from inhibition or displacement. In turn, `COc1cc(-c2ccc3c(n2)[C@H](C)N(c2ccn(CC(F)(F)F)n2)C3=O)cnc1OC` yielded a Ki of less than 100 nM.
As for `C#CCNC(=O)c1cncc(-c2cc(C)c3c(n2)C(C)(C)N(c2cnn(CC(F)(F)F)c2)C3=O)c1`, the figure is less than 100 nM.
As for `COCc1cc(N2Cc3nc(-c4cnc(OC)c(OC)c4)ccc3C2=O)n[nH]1`, the figure is less than 100 nM; as for `COc1cc(-c2cc(C)c3c(n2)CN(c2cncc(C#N)c2)C3=O)cnc1OC`, less than 100 nM.
Regarding `COc1cccc(-c2cc(C)c3c(n2)CN(c2cnn(C(C)(C)C#N)c2)C3=O)c1`, the inhibition constant (Ki) is less than 100 nM.
As for `N#CCn1cc(N2Cc3cc(-c4cncc(S(N)(=O)=O)c4)ccc3C2=O)cn1`, the Ki is less than 100 nM.
As for `Cc1cc(-c2cncc(OCC(F)(F)F)c2)nc2c1C(=O)N(c1cn(CC(F)(F)F)cn1)C2`, the figure is less than 100 nM; as for `CCc1cc(N2Cc3nc(-c4cnc(OC)c(OC)c4)cc(C)c3C2=O)nn1CC(F)(F)F`, less than 100 nM; as for `COc1ncc(-c2ccc3c(n2)CN(c2cnn(CC#N)c2)C3=O)cn1`, 100 to 490 nM.
Compound `Cc1cc(-c2cncc(C(=O)NC3COC3)c2)nc2c1C(=O)N(c1cnn(CC(F)(F)F)c1)C2(C)C` showed an inhibition constant Ki of less than 100 nM.
Then `Cc1cc(-c2cncc(OCC(F)F)c2)nc2c1C(=O)N(c1cnn(CC(F)(F)F)c1)C2C` (stereo not given), with less than 100 nM.
On to `COc1cc(-c2ccc3c(n2)[C@@H](C)N(c2ccnc(CC#N)c2)C3=O)cnc1OC`, for which the Ki was less than 100 nM.
Compound `COc1ncc(-c2cc(C)c3c(n2)C(C)N(c2cnn(CC(F)F)c2)C3=O)cc1C(=O)NCC(F)F` (stereo not given) gave a Ki of less than 100 nM.
As for `CCn1cc(N2C(=O)c3ccc(-c4cnc(OC)c(OC(F)F)c4)nc3C2C)cn1` (stereo not given), the figure is less than 100 nM.
As for `COc1cc(-c2cc(C)c3c(n2)C(C)(C)N(c2cnn(C[C@H](C)O)c2)C3=O)cnc1OC`, the figure is less than 100 nM.
Then `CCNC(=O)c1cncc(-c2cc(C)c3c(n2)C(C)(C)N(c2cnn(CC(F)(F)F)c2)C3=O)c1`, with less than 100 nM; and `Cc1cc(-c2cncc(C(=O)NCC(C)C)c2)nc2c1C(=O)N(c1cnn(CC(F)(F)F)c1)C2(C)C`, with less than 100 nM.
`COc1cc(-c2cc(C)c3c(n2)C(CC2CCOC2)N(c2cnn(CC(F)(F)F)c2)C3=O)cnc1OC` (stereo not given) displayed a Ki of less than 100 nM.
As for `COc1cc(-c2cc(C)c3c(n2)CN(c2cnn(C(C)(C)C#N)c2)C3=O)cnc1O`, the figure is 100 to 490 nM; as for `COc1cc(-c2cc(C)c3c(n2)CN(c2cnc(C(C)(C)O)c(F)c2)C3=O)cnc1OC`, less than 100 nM.
For the compound `COc1cc(-c2ccc3c(n2)CN(c2cnn(CC4CCN(C(=O)OC(C)(C)C)CC4)c2)C3=O)cnc1OC`, the Ki was 100 to 490 nM.
`COc1cncc(-c2cc(C)c3c(n2)[C@@H](C)N(c2ccn(C)n2)C3=O)c1` yielded a Ki of less than 100 nM.
Compound `CCOc1cc(-c2cc(C)c3c(n2)CN(c2cnn(CC#N)c2)C3=O)cnc1OC` showed a Ki of less than 100 nM.
As for `CC#CCn1cc(N2Cc3cc(-c4cnc(OC)c(OC)c4)ccc3C2=O)cn1`, the figure is 100 to 490 nM.
Then `Cc1cc(-c2cncc(NS(=O)(=O)C(C)C)c2)nc2c1C(=O)N(c1cnn(CC(F)(F)F)c1)C2(C)C`, with less than 100 nM; and `Cc1cc(-c2cncc(OC(F)F)c2)nc2c1C(=O)N(c1cnn(C[C@H](C)O)c1)[C@H]2C`, with less than 100 nM; and `Cc1ncc(-c2ccc3c(n2)CN(c2cnn(CC(F)(F)F)c2)C3=O)cc1O`, with 100 to 490 nM.
As for `COc1cc(-c2ccc3c(n2)CN(c2cccs2)C3=O)cnc1OC`, the figure is less than 100 nM; as for `COc1cc(-c2ccc3c(n2)CN(c2ccsc2)C3=O)cnc1OC`, less than 100 nM; as for `CCO[C@]1(C)c2nc(-c3cnc(OC)c(OC)c3)cc(C)c2C(=O)N1c1cnn(CC(F)(F)F)c1`, less than 100 nM.
Take `COc1cncc(-c2cc(C)c3c(n2)C(C)N(c2ccn(CC4CCCO4)n2)C3=O)c1` (stereo not given): the Ki is less than 100 nM.
Then `COc1cc(-c2cc(C)c3c(n2)CN(c2cnn(CC(F)(F)F)c2)C3=O)cc(OC)n1`, with less than 100 nM; and `COc1cc(-c2cc(C)c3c(n2)CN(c2ccnc(OCC(F)(F)F)c2)C3=O)cnc1OC`, with less than 100 nM.
As for `CCn1ccnc1Cn1cc(N2Cc3nc(-c4cnc(OC)c(OC)c4)ccc3C2=O)cn1`, the figure is less than 100 nM; as for `COc1ncc(-c2ccc3c(n2)C(C)N(c2cnn(CC(F)(F)F)c2)C3=O)cc1O` (stereo not given), less than 100 nM.
As for `Cc1cc(-c2ccc(F)c(O)c2)nc2c1C(=O)N(c1cnn(CC(F)(F)F)c1)C2`, the figure is less than 100 nM; as for `COc1cc(-c2ccc3c(n2)C(C)N(c2cncc(C(C)(C)C#N)c2)C3=O)cnc1OC` (stereo not given), 100 to 490 nM.
On to `COc1cc(-c2cc(N(C)C)c3c(n2)CN(c2cnn(CC#N)c2)C3=O)cnc1OC`, for which the Ki is less than 100 nM.
As for `CC[C@]1(OC)c2nc(-c3cnc(OC)c(OC)c3)cc(C)c2C(=O)N1c1cnn(CC(F)(F)F)c1`, the figure is less than 100 nM; as for `Cc1cc(-c2cccc(OC(F)(F)F)c2)nc2c1C(=O)N(c1cnn(CC(F)(F)F)c1)C2`, less than 100 nM; as for `COc1cc(-c2ccc3c(c2)CN(c2ncc(C)s2)C3=O)cnc1OC`, 100 to 490 nM.
As for `COc1ccc(-c2ccc3c(n2)CN(c2cnn(CC#N)c2)C3=O)c(OC)n1`, the figure is less than 100 nM; as for `COc1cc(-c2cc(C)c3c(n2)CN(c2cncnc2)C3=O)cnc1OC`, less than 100 nM; as for `COc1cc(-c2ccc3c(c2)CN(c2cnn([C@@H](C)C#N)c2)C3=O)cnc1OC`, less than 100 nM.
Then `COc1cc(-c2cc(C)c3c(n2)C(C)N(c2cnn(CC(F)(F)F)c2)C3=O)cnc1OC(C)C` (stereo not given), with less than 100 nM; and `COc1cc(-c2cc(C)c3c(n2)C(O)(OC)N(c2cnn(CC(F)(F)F)c2)C3=O)cnc1OC` (stereo not given), with less than 100 nM.
Compound `Cc1cc(-c2cncc(S(=O)(=O)N(C)C)c2)nc2c1C(=O)N(c1cnn(CC(F)(F)F)c1)C2(C)C` came in with a Ki of less than 100 nM.
Then `COc1ncc(-c2cc(C)c3c(n2)C(C)N(c2cnn(CC(F)F)c2)C3=O)cc1C(=O)O` (stereo not given), with less than 100 nM.
Then `CCOc1cc(-c2cc(C)c3c(n2)CN(c2cnn(CC#N)c2)C3=O)cnc1OCC`, with less than 100 nM; and `Cc1cc(-c2cncc(OCC(F)(F)F)c2)nc2c1C(=O)N(c1cnn(CC(F)(F)F)c1)C2C` (stereo not given), with less than 100 nM.
The compound `COc1cc(-c2ccc3c(c2)CN(c2cccc(CC#N)c2)C3=O)cnc1OC` showed a Ki of less than 100 nM.
`Cc1cc(-c2cncc(OC(F)F)c2)cc2c1C(=O)N(c1cnn(CC(F)(F)F)c1)C2C` (stereo not given) had a Ki of less than 100 nM.
As for `COc1ncc(-c2cc(C)c3c(n2)CN(c2cnn(CC(F)(F)F)c2)C3=O)cc1O`, the figure is less than 100 nM; as for `COc1cc(-c2ccc3c(n2)CN(c2ccc(N4CC[C@@H](F)C4)nc2)C3=O)cnc1OC`, 100 to 490 nM; as for `CCOc1cc(-c2cc(C)c3c(c2)C(C)N(c2cnn(CC(F)(F)F)c2)C3=O)cnc1OCC` (stereo not given), less than 100 nM.
As for `COc1cc(-c2ccc3c(n2)[C@H](C)N(c2ccnc(CC#N)c2)C3=O)cnc1OC`, the figure is less than 100 nM; as for `COc1cc(-c2cc(C)c3c(n2)CN(c2cnn(C4CC4)c2)C3=O)cnc1OC`, less than 100 nM; as for `COc1cc(-c2cc(N3CCC3)c3c(n2)CN(c2cnn(CC(F)(F)F)c2)C3=O)cnc1OC`, less than 100 nM.
As for `CCn1cc(N2Cc3nc(-c4cnc(OC)c(OC(F)F)c4)ccc3C2=O)cn1`, the Ki is less than 100 nM.
Then `COc1ccc(-c2cc(C)c3c(n2)CN(c2cnn(CC(F)(F)F)c2)C3=O)c(OC)c1`, with 100 to 490 nM.
